Test [1] deals with T1, UCHL1 (Homo sapiens, UniProt P09936).
T1 sequence (P09936 1-223): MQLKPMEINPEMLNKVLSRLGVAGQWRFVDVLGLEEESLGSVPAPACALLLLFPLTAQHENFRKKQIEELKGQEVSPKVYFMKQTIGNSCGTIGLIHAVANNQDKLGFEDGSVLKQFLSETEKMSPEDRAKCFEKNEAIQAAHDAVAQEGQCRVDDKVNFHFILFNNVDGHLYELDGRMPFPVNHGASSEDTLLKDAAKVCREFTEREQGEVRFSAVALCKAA
Nature of the test: Rapid dilution reversibility assay. The test is classed as biochemical. The conditions noted are these: incubated at ten times IC50, diluted 100-fold; normalized to DMSO.

Test [2] addresses T2, HA-UCHL1 (Homo sapiens, UniProt P09936).
T2 sequence (P09936 1-223): T1 sequence (P09936 1-223)
Nature of the test: AlphaLISA DUB assay miniaturized to 1536-well format. The class given is biochemical. (In general: In Alpha technology, singlet oxygen from a donor bead excites a nearby acceptor bead.)

The target of test [3] is T1, UCHL1. Nature of the test: Ub-AMC assay with recombinant UCHL1. The test is classed as biochemical. The conditions noted are these: for difference in IC50 value (selectivity for UCHL1): versus UCHL3, UCHL5, USP2 catalytic core.
The target of a further test is T3, endogenous UCHL1 (Homo sapiens, UniProt P09936).
T3 sequence (P09936 1-223): T1 sequence (P09936 1-223)
The test is classed as biochemical. The conditions noted are these: 100 μM and 20 μM of compound; HEK293T cell lysates.

For test [4], the target named is T2, HA-UCHL1. Nature of the test: Cell lysate AlphaLISA DUB assay, 384-well format. The class given is biochemical. The conditions noted are these: 384-well plate format; dose-response.
Test [5] has as its system UCHL1. The conditions noted are these: cited from earlier work.
Test [6] has as its target T2, HA-UCHL1. The conditions noted are these: HEK293T cell lysates; Western blot, anti-HA. (In general: Immunoblotting shows a protein as a band on a membrane.)
Another test addresses T4, UCHL3 (Homo sapiens, UniProt P15374).
T4 sequence (P15374 1-230): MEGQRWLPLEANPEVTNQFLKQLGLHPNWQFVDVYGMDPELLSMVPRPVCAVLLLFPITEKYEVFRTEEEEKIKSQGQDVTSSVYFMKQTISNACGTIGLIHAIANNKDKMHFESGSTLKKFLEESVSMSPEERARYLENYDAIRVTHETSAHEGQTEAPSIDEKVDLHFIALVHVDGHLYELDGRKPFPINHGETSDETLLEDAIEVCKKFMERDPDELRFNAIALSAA
Nature of the test: Ub-AMC selectivity assay, UCHL3. The test is classed as biochemical. The conditions noted are these: 114 μM.

Another test deals with T5, UCHL5 (Homo sapiens, UniProt Q9Y5K5).
T5 sequence (Q9Y5K5 1-329): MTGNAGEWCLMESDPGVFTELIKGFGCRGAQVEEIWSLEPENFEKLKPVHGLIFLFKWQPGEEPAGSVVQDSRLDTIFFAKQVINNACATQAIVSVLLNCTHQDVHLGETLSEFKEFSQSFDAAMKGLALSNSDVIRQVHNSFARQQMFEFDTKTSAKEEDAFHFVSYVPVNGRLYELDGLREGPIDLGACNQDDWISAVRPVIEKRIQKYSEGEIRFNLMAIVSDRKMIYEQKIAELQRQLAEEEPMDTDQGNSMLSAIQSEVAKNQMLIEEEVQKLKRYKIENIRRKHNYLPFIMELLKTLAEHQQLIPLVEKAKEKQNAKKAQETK
Nature of the test: Ub-AMC selectivity assay, UCHL5. The class given is biochemical. The conditions noted are these: 114 μM.

A further test deals with T6, USP2 catalytic core (Homo sapiens, UniProt O75604).
T6 sequence (O75604 267-599 limits assumed): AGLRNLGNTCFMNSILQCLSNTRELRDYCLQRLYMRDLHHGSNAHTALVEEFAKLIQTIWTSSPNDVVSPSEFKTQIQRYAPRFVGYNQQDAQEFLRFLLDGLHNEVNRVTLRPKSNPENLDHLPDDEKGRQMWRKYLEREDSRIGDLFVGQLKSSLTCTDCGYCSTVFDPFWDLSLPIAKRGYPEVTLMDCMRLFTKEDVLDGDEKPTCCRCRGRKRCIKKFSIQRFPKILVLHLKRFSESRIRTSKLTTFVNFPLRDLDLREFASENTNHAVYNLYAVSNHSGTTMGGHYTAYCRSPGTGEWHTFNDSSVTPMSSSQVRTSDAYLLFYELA
Kind of test: Ub-AMC selectivity assay, USP2 catalytic core. The test is classed as biochemical. The conditions noted are these: 114 μM.

A further test has as its target T7, full length USP15 (Homo sapiens, UniProt Q9Y4E8).
T7 sequence (Q9Y4E8 1-981): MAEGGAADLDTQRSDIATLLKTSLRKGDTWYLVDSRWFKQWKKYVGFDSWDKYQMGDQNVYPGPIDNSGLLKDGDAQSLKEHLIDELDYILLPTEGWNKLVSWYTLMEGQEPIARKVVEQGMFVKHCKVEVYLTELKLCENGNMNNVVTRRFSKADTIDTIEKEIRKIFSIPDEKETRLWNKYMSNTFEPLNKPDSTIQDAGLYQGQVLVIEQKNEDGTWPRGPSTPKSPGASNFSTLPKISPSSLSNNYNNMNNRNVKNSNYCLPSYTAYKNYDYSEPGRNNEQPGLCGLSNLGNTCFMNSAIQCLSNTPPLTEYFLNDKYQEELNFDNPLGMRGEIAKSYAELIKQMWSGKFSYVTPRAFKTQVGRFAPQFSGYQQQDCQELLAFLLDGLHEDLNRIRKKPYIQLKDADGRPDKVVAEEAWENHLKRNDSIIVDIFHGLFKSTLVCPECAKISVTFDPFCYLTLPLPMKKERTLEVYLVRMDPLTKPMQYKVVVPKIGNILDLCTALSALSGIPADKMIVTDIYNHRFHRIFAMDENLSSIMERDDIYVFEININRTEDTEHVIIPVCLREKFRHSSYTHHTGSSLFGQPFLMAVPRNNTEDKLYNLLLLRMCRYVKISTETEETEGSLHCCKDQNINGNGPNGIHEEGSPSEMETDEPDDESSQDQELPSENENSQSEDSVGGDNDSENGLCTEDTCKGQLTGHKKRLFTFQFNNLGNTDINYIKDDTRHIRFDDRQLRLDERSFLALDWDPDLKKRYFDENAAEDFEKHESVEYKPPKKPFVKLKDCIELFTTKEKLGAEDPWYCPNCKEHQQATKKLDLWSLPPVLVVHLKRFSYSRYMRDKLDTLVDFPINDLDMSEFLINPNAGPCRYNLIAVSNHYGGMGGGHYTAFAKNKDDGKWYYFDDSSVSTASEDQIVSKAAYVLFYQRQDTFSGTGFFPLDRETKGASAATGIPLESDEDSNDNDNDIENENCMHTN
Nature of the test: Ub-AMC selectivity assay, full length USP15. The test is classed as biochemical. The conditions noted are these: 114 μM.

Molecules are shown by their SMILES. Like-named read-outs stand apart in the source and are kept apart here.

On to `CCN1C(=O)C=CC1=O` [NEM, N-ethylmaleimide, reference compound], for which the “recovered UCHL1 activity after rapid dilution” value (from here on “recovered UCHL1 activity”) at UCHL1 [1] came to 3.9%.
Broadly, the IC50 is the point on the concentration scale where inhibition reaches its midpoint. For `O=c1c2cc(O)c(O)cc2oc2cc(O)c([C@@H]3O[C@H](CO)[C@@H](O)[C@H](O)[C@H]3O)c(O)c12` [mangiferin], the 50% inhibitory concentration (IC50) was found to be 1.12 µM on HA-UCHL1 [2] and 8.9 µM on UCHL1 [3]. Besides, the “difference in IC50 value (selectivity for UCHL1)” value on UCHL1 [3] (USP15, Ub-AMC) is given as ≥ 4 fold. Also, the “recovered UCHL1 activity” value at UCHL1 [1] is reported as > 80%. Further, on endogenous UCHL1, the “inhibition of endogenous UCHL1 labeling by HA-UbVMe” value (shortened to “inhibition … by HA-UbVMe”) is “stronger inhibition”.
Compound `CC(=O)Oc1c2c(c(CC=C(C)C)c3c1C(=O)C1=C[C@@H]4CC5C(C)(C)OC(C/C=C(\C)C(=O)O)(C4=O)[C@@]15O3)OC(C)(CCC=C(C)C)C=C2` (some centres unmarked) [acetyl isogambogic acid] returned a half-inhibitory concentration (IC50) at HA-UCHL1 [2] of 30.6 µM. The “selectivity among UCHs and USPs tested” value at UCHL1 [3] (UCHL1 versus UCHL3, UCHL5, USP2 catalytic core, USP15, Ub-AMC) is listed as “more promiscuous inhibitors”. Also, at UCHL1 [1], the “recovered UCHL1 activity” value was > 80%. In addition, the “inhibition … by HA-UbVMe” value against endogenous UCHL1 is “stronger inhibition”.
`CC1=C(O)C(=O)C=C2C1=CC=C1[C@@]2(C)CC[C@@]2(C)[C@@H]3C[C@](C)(C(=O)O)CC[C@]3(C)CC[C@]12C` [celastrol] showed a half-inhibitory concentration (IC50) against HA-UCHL1 [2] of 4.46 µM. Moreover, the “difference in IC50 value (selectivity for UCHL1)” value at UCHL1 [3] (USP15, Ub-AMC) is given as ≥ 4 fold. In addition, the “recovered UCHL1 activity” value at UCHL1 [1] is > 80%. Further, the “inhibition … by HA-UbVMe” value against endogenous UCHL1 was “stronger inhibition”.
Take `Cc1cnc(-c2ccccc2C(C)C)nc1NCc1ccc(-n2ccnn2)cc1` [ML323]: the “inhibition in the AlphaLISA assay” value against HA-UCHL1 [4] was “no obvious inhibition”. Besides, the “activity against UCHL1” value in the test with UCHL1 [5] was “inactive”. In addition, on HA-UCHL1 [6], the “inhibition of UCHL1 labeling by biotin-UbVMe” value is given as “did not inhibit the labeling”.
With `COC(=O)C1=CO[C@@H](C)[C@@H]2CN3CCc4c([nH]c5ccc(OC)cc45)[C@@H]3C[C@H]12` [(-)-aricine], the 50% inhibitory concentration (IC50) on HA-UCHL1 [2] (read-out: IC50 determined in the qHTS, qHTS, data not shown) amounted to 38.5 µM; on UCHL1 [3] (Ub-AMC as substrate), 47.7 µM. Further, on UCHL1 [1], the “recovered UCHL1 activity” value was > 80%. The “inhibition at highest inhibitor concentration” value at UCHL3, against UCHL5, on USP2 catalytic core and on full length USP15 was “no significant inhibition” throughout.
For the compound `CO[C@H]1/C=C/O[C@@]2(C)Oc3c(C)c(O)c4c(O)c(c(/C=N/N5CCN(C)CC5)c(O)c4c3C2=O)NC(=O)/C(C)=C\C=C\[C@H](C)[C@H](O)[C@@H](C)[C@@H](O)[C@@H](C)[C@H](OC(C)=O)[C@@H]1C` [rifampicin, reference compound], the IC50 against HA-UCHL1 [2] worked out at 38.5 µM; on UCHL1 [3], 19.5 µM.
